Source: patent EP4324461A1, “(E)-N-CINAMOYLAMINOALKANOLES WITH MELANOGENESIS INHIBITORY ACTIVITY” (UNIWERSYTET JAGIELLONSKI, priority 2022, dated 2024)

Tests used:
Format in all cases: cell-based
[1] = test system: Primary melanocytes; assay: Safety, MTT test in primary melanocytes; details: 48 hours
Experimental: (§1) In order to test the safety of the compounds, both normal human cells were used: keratinocytes (HaCaT), fibroblasts (BJ), primary melanocytes that occur in the skin, as well as human cancer cells: the hepatocarcinoma line HepG2 and the neuroblastoma line SH-SY5Y, which are considered a model for the assessment of hepatocytotoxicity and neurocytotoxicity. The concentrations of the tested compounds in the range of 250-100 µM were used in the studies. The cell lines used in the research were purchased from the American Type Culture Collection (ATCC) and were cultured in media recommended by the manufacturer with the addition of FBS and antibiotics in an incubator ensuring appropriate culture conditions, i.e. humidity, temperature and CO2 concentration. Cells were seeded into multiwell plates and incubated with the test compounds for 48 hours. After this time, MTT and LDH tests were performed to assess cell viability. The MTT test is based on the ability to transform the substrate: [3-(4,5-dimethyl-2-thiazolyl)-2,5-diphenyl-2H-tetrazolium bromide into a colored product only by living cells. The absorbance at 570 nm, which corresponds to the absorption maximum for the product, is directly proportional to cell viability. The LDH test is based on testing the activity of the enzyme lactate dehydrogenase in the culture medium, which is released from cells as a result of damage to the cell membrane, e.g. as a result of cell death. Triton X-100 was used as a positive control in the test. The determination is colorimetric, the substrate is transformed by the released enzyme into a colored product, an increase in absorbance indicates a larger amount of the released enzyme, and thus confirms greater damage to cell membranes. Tables 7 and 8 present the results obtained, which correspond to the viability of cells incubated with the compounds in relation to the viability of cells constituting a control sample, i.e. incubated with the solvent (DMSO) at the same concentration as in the case of the groups tested in the MTT test or in relation to the results obtained for the Triton X-100 positive control in the LDH test. They indicate that the compounds are safe at the concentrations tested. Table 7. Viability of tested normal human cell lines: keratinocytes (HaCaT), fibroblasts (BJ) and primary melanocytes after incubation with the tested compounds - determination in the MTT test (% of solvent control ± SD) and LDH (percentage of positive control - Triton X-100.

[2] = test system: Fibroblasts (BJ); assay: Safety, LDH test in fibroblasts; details: 48 hours, positive control Triton X-100
Experimental: as §1

[3] = test system: Keratinocytes (HaCaT); assay: Safety, MTT test in keratinocytes; details: 48 hours
Experimental: as §1

[4] = test system: neuroblastoma SH-SY5Y; assay: Safety, MTT test in SH-SY5Y; details: 48 hours
Experimental: as §1

[5] = test system: neuroblastoma SH-SY5Y; assay: Safety, LDH test in SH-SY5Y; details: 48 hours, positive control Triton X-100
Experimental: as §1

[6] = test system: Hepatocarcinoma HepG2; assay: Safety, LDH test in HepG2; details: 48 hours, positive control Triton X-100
Experimental: as §1

[7] = test system: Keratinocytes (HaCaT); assay: Safety, LDH test in keratinocytes; details: 48 hours, positive control Triton X-100
Experimental: as §1

[8] = test system: Fibroblasts (BJ); assay: Safety, MTT test in fibroblasts; details: 48 hours
Experimental: as §1

[9] = test system: Hepatocarcinoma HepG2; assay: Safety, MTT test in HepG2; details: 48 hours
Experimental: as §1

O=C(/C=C/c1ccc(Cl)cc1)NCCO [H-427/21, (2E)-3-(4-chlorophenyl)-N-(2-hydroxyethyl)prop-2-enamide]
Primary melanocytes MTT ([1]; 100 µM): 102.20±2.24 % of solvent control
Primary melanocytes MTT ([1]; 150 µM): 100.57±2.18 % of solvent control
Primary melanocytes MTT ([1]; 200 µM): 93.78±2.18 % of solvent control
Primary melanocytes MTT ([1]; 250 µM): 85.19±2.03 % of solvent control
Fibroblasts (BJ) LDH ([2]; 100 µM): 2.75 percentage of positive control
Fibroblasts (BJ) LDH ([2]; 150 µM): 5.92 percentage of positive control
Fibroblasts (BJ) LDH ([2]; 200 µM): 9.00 percentage of positive control
Fibroblasts (BJ) LDH ([2]; 250 µM): 17.32 percentage of positive control
Keratinocytes (HaCaT) MTT ([3]; 100 µM): 100.47±3.65 % of solvent control
Keratinocytes (HaCaT) MTT ([3]; 150 µM): 98.15±2.63 % of solvent control
Keratinocytes (HaCaT) MTT ([3]; 200 µM): 99.24±3.00 % of solvent control
Keratinocytes (HaCaT) MTT ([3]; 250 µM): 89.94±4.66 % of solvent control
Neuroblastoma SH-SYSY MTT ([4]; 100 µM): 100.48±3.67 % of solvent control
Neuroblastoma SH-SYSY MTT ([4]; 150 µM): 100.96±2.72 % of solvent control
Neuroblastoma SH-SYSY MTT ([4]; 200 µM): 101.30±2.94 % of solvent control
Neuroblastoma SH-SYSY MTT ([4]; 250 µM): 102.60±9.66 % of solvent control
Neuroblastoma SH-SYSY LDH ([5]; 100 µM): 3.09 percentage of positive control
Neuroblastoma SH-SYSY LDH ([5]; 150 µM): 4.45 percentage of positive control
Neuroblastoma SH-SYSY LDH ([5]; 200 µM): 5.98 percentage of positive control
Neuroblastoma SH-SYSY LDH ([5]; 250 µM): 8.87 percentage of positive control
Hepatocarcinoma HepG2 LDH ([6]; 100 µM): 3.09 percentage of positive control
Hepatocarcinoma HepG2 LDH ([6]; 150 µM): 4.45 percentage of positive control
Hepatocarcinoma HepG2 LDH ([6]; 200 µM): 5.98 percentage of positive control
Hepatocarcinoma HepG2 LDH ([6]; 250 µM): 13.51 percentage of positive control
Keratinocytes (HaCaT) LDH ([7]; 100 µM): 2.76 percentage of positive control
Keratinocytes (HaCaT) LDH ([7]; 150 µM): 3.69 percentage of positive control
Keratinocytes (HaCaT) LDH ([7]; 200 µM): 6.50 percentage of positive control
Keratinocytes (HaCaT) LDH ([7]; 250 µM): 17.79 percentage of positive control
Fibroblasts (BJ) MTT ([8]; 100 µM): 101.82±3.99 % of solvent control
Fibroblasts (BJ) MTT ([8]; 150 µM): 100.76±3.34 % of solvent control
Fibroblasts (BJ) MTT ([8]; 200 µM): 100.37±3.92 % of solvent control
Fibroblasts (BJ) MTT ([8]; 250 µM): 98.13±2.81 % of solvent control
Hepatocarcinoma HepG2 MTT ([9]; 100 µM): 99.61±4.37 % of solvent control
Hepatocarcinoma HepG2 MTT ([9]; 150 µM): 98.44±3.94 % of solvent control
Hepatocarcinoma HepG2 MTT ([9]; 200 µM): 97.07±4.00 % of solvent control
Hepatocarcinoma HepG2 MTT ([9]; 250 µM): 100.08±10.58 % of solvent control

O=C(/C=C/c1ccc(Cl)cc1)NCCCO [H-330/21, (2E)-3-(4-chlorophenyl)-N-(3-hydroxypropyl)prop-2-enamide]
Primary melanocytes MTT ([1]; 100 µM): 101.42±2.21 % of solvent control
Primary melanocytes MTT ([1]; 150 µM): 97.02±4.49 % of solvent control
Primary melanocytes MTT ([1]; 200 µM): 93.78±2.29 % of solvent control
Primary melanocytes MTT ([1]; 250 µM): 90.27±2.25 % of solvent control
Fibroblasts (BJ) LDH ([2]; 100 µM): 4.74 percentage of positive control
Fibroblasts (BJ) LDH ([2]; 150 µM): 6.50 percentage of positive control
Fibroblasts (BJ) LDH ([2]; 200 µM): 14.25 percentage of positive control
Fibroblasts (BJ) LDH ([2]; 250 µM): 28.74 percentage of positive control
Keratinocytes (HaCaT) MTT ([3]; 100 µM): 102.03±1.45 % of solvent control
Keratinocytes (HaCaT) MTT ([3]; 150 µM): 101.42±2.04 % of solvent control
Keratinocytes (HaCaT) MTT ([3]; 200 µM): 97.07±2.81 % of solvent control
Keratinocytes (HaCaT) MTT ([3]; 250 µM): 94.89±1.06 % of solvent control
Neuroblastoma SH-SYSY MTT ([4]; 100 µM): 99.79±5.34 % of solvent control
Neuroblastoma SH-SYSY MTT ([4]; 150 µM): 99.86±3.76 % of solvent control
Neuroblastoma SH-SYSY MTT ([4]; 200 µM): 99.79±3.97 % of solvent control
Neuroblastoma SH-SYSY MTT ([4]; 250 µM): 99.11±3.66 % of solvent control
Neuroblastoma SH-SYSY LDH ([5]; 100 µM): 6.19 percentage of positive control
Neuroblastoma SH-SYSY LDH ([5]; 150 µM): 4.90 percentage of positive control
Neuroblastoma SH-SYSY LDH ([5]; 200 µM): 8.35 percentage of positive control
Neuroblastoma SH-SYSY LDH ([5]; 250 µM): 13.41 percentage of positive control
Hepatocarcinoma HepG2 LDH ([6]; 100 µM): 5.38 percentage of positive control
Hepatocarcinoma HepG2 LDH ([6]; 150 µM): 4.90 percentage of positive control
Hepatocarcinoma HepG2 LDH ([6]; 200 µM): 12.16 percentage of positive control
Hepatocarcinoma HepG2 LDH ([6]; 250 µM): 19.02 percentage of positive control
Keratinocytes (HaCaT) LDH ([7]; 100 µM): 3.66 percentage of positive control
Keratinocytes (HaCaT) LDH ([7]; 150 µM): 5.33 percentage of positive control
Keratinocytes (HaCaT) LDH ([7]; 200 µM): 17.03 percentage of positive control
Keratinocytes (HaCaT) LDH ([7]; 250 µM): 24.24 percentage of positive control
Fibroblasts (BJ) MTT ([8]; 100 µM): 100.54±5.01 % of solvent control
Fibroblasts (BJ) MTT ([8]; 150 µM): 94.85±3.51 % of solvent control
Fibroblasts (BJ) MTT ([8]; 200 µM): 85.52±3.08 % of solvent control
Fibroblasts (BJ) MTT ([8]; 250 µM): 76.51±1.80 % of solvent control
Hepatocarcinoma HepG2 MTT ([9]; 100 µM): 100.73±4.51 % of solvent control
Hepatocarcinoma HepG2 MTT ([9]; 150 µM): 100.44±3.93 % of solvent control
Hepatocarcinoma HepG2 MTT ([9]; 200 µM): 100.86±6.41 % of solvent control
Hepatocarcinoma HepG2 MTT ([9]; 250 µM): 93.16±1.71 % of solvent control
